Patent US20220031629A1, “OPHTHALMIC COMPOSITIONS FOR REMOVING MEIBUM OR INHIBITING MEIBUM BUILDUP” (Altaire Pharmaceuticals, Inc., priority 2020, published 2022)

Test system: normal human keratinocytes/stratified squamous epithelium (EPIOCULAR model)
Assay: Ocular irritation MTT assay (EPIOCULAR model)
Assay type: cell-based
Protocol: Another ocular irritation study was done by exposing a microemulsion containing polyoxyl 35 castor oil in accordance with an embodiment of the present disclosure onto normal human keratinocytes/stratified squamous epithelium which is similar to that found in the cornea epithelium of the human eye (EPIOCULAR model), and then checking tissue viability with MTT assay for cytotoxicity after incubation in comparison with a water control (Cyprotex).

COC(C)=O [Methyl Acetate] was tested, and the “Irritation Response (Irritant if ≤ 60%)” value (MTT assay) was “Positive” and the “Mean Tissue Viability” value (MTT assay after incubation, in comparison with water control) was 31.1%.
